Results as given in patent US9708314B2, “Heterocyclic amide compound” (NISSAN CHEMICAL INDUSTRIES, LTD., priority 2013, dated 2017).

What was measured:
Type in all cases: in vivo
[1] = tested on: transplanted Oryza sativa; assay: Test Example 1: effect on crop, application before weed generation in submerged conditions; conditions: Application herbicide amount 320 g/ha; Seventeenth Table
In short: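 Submerged pot test: alluvial soil, 4 cm water, seeds sown mixed, 2.5-leaf rice transplanted; emulsion in water applied to surface day of sowing, dose g/ha; greenhouse 25–30° C.; 3 wk; 0–5 rating.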

[2] = tested on: Triticum aestivum; assay: Test Example 4: effect on crop by application to foliage (diluvial soil, plastic box); conditions: for e (Triticum aestivum) effect on crop grade: Application herbicide amount 320 g/ha, foliage application
In short: (§1)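 Read-out is a 0–5 visual grade of herbicidal ratio (5: ≥90%, almost withered; 0: ≤5%) taken three weeks after treatment. Compound was applied as a diluted emulsion to stem and leaf parts of 14-day greenhouse-grown plants (25° C. to 30° C.) at rates expressed as g/ha.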

[3] = tested on: Glycine max; assay: as above; conditions: for d (Glycine max) effect on crop grade: Application herbicide amount 320 g/ha, foliage application
In short: as §1

[4] = tested on: Beta vulgaris ssp. vulgaris; assay: as above; conditions: for f (Beta vulgaris ssp. vulgaris) effect on crop grade: Application herbicide amount 320 g/ha, foliage application
In short: as §1

[5] = tested on: Brassica campestris L.; assay: as above; conditions: for g (Brassica campestris L.) effect on crop grade: Application herbicide amount 320 g/ha, foliage application
In short: as §1

[6] = tested on: Zea mays; assay: as above; conditions: for c (Zea mays) effect on crop grade: Application herbicide amount 320 g/ha, foliage application
In short: as §1

[7] = tested on: directly sowed Oryza sativa; assay: as above; conditions: for b (directly sowed Oryza sativa) effect on crop grade: Application herbicide amount 320 g/ha, foliage application
In short: as §1

[8] = tested on: Stellaria media; assay: Test Example 4: herbicidal effect by application to foliage (diluvial soil, plastic box); conditions: for P (Stellaria media) herbicidal effect grade: Application herbicide amount 320 g/ha, foliage application
In short: as §1

[9] = application to foliage, application herbicide amount 320 g/ha

SMILES	a: transplanted Oryza sativa (effect on crop grade) [1]	e (Triticum aestivum) effect on crop grade [2]	d (Glycine max) effect on crop grade [3]	f (Beta vulgaris ssp. vulgaris) effect on crop grade [4]	g (Brassica campestris L.) effect on crop grade [5]	c (Zea mays) effect on crop grade [6]	b (directly sowed Oryza sativa) effect on crop grade [7]	P (Stellaria media) herbicidal effect grade [8]	e: effect on crop, Triticum aestivum [2, 9]	d: effect on crop, Glycine max [3, 9]	f: effect on crop, Beta vulgaris ssp. vulgaris [4, 9]	g: effect on crop, Brassica campestris L. [5, 9]	c: effect on crop, Zea mays [6, 9]	b: effect on crop, directly sowed Oryza sativa [7, 9]	P: herbicidal effect on Stellaria media [8, 9]
O=C(Nc1nnco1)c1ccc(C(F)(F)F)n2c(C3CC3)nnc12 [1-144]	1 (Herbicidal ratio of 5% or more and less than 20%)	1 (Herbicidal ratio of 5% or more and less than 20%)	4 (Herbicidal ratio of 70% or more and less than 90%)	5 (Herbicidal ratio of 90% or more (almost completely withered))	4 (Herbicidal ratio of 70% or more and less than 90%)	0 (Herbicidal ratio of 5% or less (almost no effect))	0 (Herbicidal ratio of 5% or less (almost no effect))	5 (Herbicidal ratio of 90% or more (almost completely withered))							
COc1ccc(-c2nnc3c(C(=O)Nc4nnco4)ccc(C(F)(F)F)n23)cc1 [1-149]	3 (Herbicidal ratio of 40% or more and less than 70%)	0 (Herbicidal ratio of 5% or less (almost no effect))	3 (Herbicidal ratio of 40% or more and less than 70%)	5 (Herbicidal ratio of 90% or more (almost completely withered))	5 (Herbicidal ratio of 90% or more (almost completely withered))	0 (Herbicidal ratio of 5% or less (almost no effect))	1 (Herbicidal ratio of 5% or more and less than 20%)	5 (Herbicidal ratio of 90% or more (almost completely withered))							
C#CCN(C)c1nnc2c(C(=O)Nc3nnc(C)o3)ccc(C(F)(F)F)n12 [1-152]	2 (Herbicidal ratio of 20% or more and less than 40%)	0 (Herbicidal ratio of 5% or less (almost no effect))	3 (Herbicidal ratio of 40% or more and less than 70%)	4 (Herbicidal ratio of 70% or more and less than 90%)	1 (Herbicidal ratio of 5% or more and less than 20%)	0 (Herbicidal ratio of 5% or less (almost no effect))	0 (Herbicidal ratio of 5% or less (almost no effect))	4 (Herbicidal ratio of 70% or more and less than 90%)							
COc1ccc(CN(C)c2nnc3c(C(=O)Nc4nnc(C)o4)ccc(C(F)(F)F)n23)cc1 [1-167]	0 (Herbicidal ratio of 5% or less (almost no effect))								0 (Herbicidal ratio of 5% or less (almost no effect))	1 (Herbicidal ratio of 5% or more and less than 20%)	5 (Herbicidal ratio of 90% or more (almost completely withered))	0 (Herbicidal ratio of 5% or less (almost no effect))	0 (Herbicidal ratio of 5% or less (almost no effect))	0 (Herbicidal ratio of 5% or less (almost no effect))	5 (Herbicidal ratio of 90% or more (almost completely withered))
O=C(Nc1nnco1)c1ccc(C(F)(F)F)n2c(-c3ccc(Cl)nc3)nnc12 [1-150]	4 (Herbicidal ratio of 70% or more and less than 90%)	3 (Herbicidal ratio of 40% or more and less than 70%)	4 (Herbicidal ratio of 70% or more and less than 90%)	5 (Herbicidal ratio of 90% or more (almost completely withered))	5 (Herbicidal ratio of 90% or more (almost completely withered))	0 (Herbicidal ratio of 5% or less (almost no effect))	3 (Herbicidal ratio of 40% or more and less than 70%)	5 (Herbicidal ratio of 90% or more (almost completely withered))							
CSCc1nnc2c(C(=O)Nc3nnco3)ccc(C(F)(F)F)n12 [1-146]	3 (Herbicidal ratio of 40% or more and less than 70%)	3 (Herbicidal ratio of 40% or more and less than 70%)	5 (Herbicidal ratio of 90% or more (almost completely withered))	5 (Herbicidal ratio of 90% or more (almost completely withered))	5 (Herbicidal ratio of 90% or more (almost completely withered))	0 (Herbicidal ratio of 5% or less (almost no effect))	5 (Herbicidal ratio of 90% or more (almost completely withered))	5 (Herbicidal ratio of 90% or more (almost completely withered))							
COc1cc(OC)cc(-c2nnc3c(C(=O)Nc4nnco4)ccc(C(F)(F)F)n23)c1 [1-148]	4 (Herbicidal ratio of 70% or more and less than 90%)	0 (Herbicidal ratio of 5% or less (almost no effect))	3 (Herbicidal ratio of 40% or more and less than 70%)	5 (Herbicidal ratio of 90% or more (almost completely withered))	4 (Herbicidal ratio of 70% or more and less than 90%)	0 (Herbicidal ratio of 5% or less (almost no effect))	3 (Herbicidal ratio of 40% or more and less than 70%)	5 (Herbicidal ratio of 90% or more (almost completely withered))							
Cc1nnc(NC(=O)c2ccc(C(F)(F)F)n3c(N(C)CCC#N)nnc23)o1 [1-153]	2 (Herbicidal ratio of 20% or more and less than 40%)	2 (Herbicidal ratio of 20% or more and less than 40%)	5 (Herbicidal ratio of 90% or more (almost completely withered))	5 (Herbicidal ratio of 90% or more (almost completely withered))	3 (Herbicidal ratio of 40% or more and less than 70%)	0 (Herbicidal ratio of 5% or less (almost no effect))	3 (Herbicidal ratio of 40% or more and less than 70%)	5 (Herbicidal ratio of 90% or more (almost completely withered))							
CCC(CC)c1nnc2c(C(=O)Nc3nnco3)ccc(C(F)(F)F)n12 [1-145]	4 (Herbicidal ratio of 70% or more and less than 90%)	2 (Herbicidal ratio of 20% or more and less than 40%)	3 (Herbicidal ratio of 40% or more and less than 70%)	5 (Herbicidal ratio of 90% or more (almost completely withered))	3 (Herbicidal ratio of 40% or more and less than 70%)	0 (Herbicidal ratio of 5% or less (almost no effect))	3 (Herbicidal ratio of 40% or more and less than 70%)	5 (Herbicidal ratio of 90% or more (almost completely withered))							
O=C(Nc1nnco1)c1ccc(C(F)(F)F)n2c(-c3ccc(F)cc3)nnc12 [1-147]	2 (Herbicidal ratio of 20% or more and less than 40%)	3 (Herbicidal ratio of 40% or more and less than 70%)	3 (Herbicidal ratio of 40% or more and less than 70%)	5 (Herbicidal ratio of 90% or more (almost completely withered))	5 (Herbicidal ratio of 90% or more (almost completely withered))	0 (Herbicidal ratio of 5% or less (almost no effect))	0 (Herbicidal ratio of 5% or less (almost no effect))	5 (Herbicidal ratio of 90% or more (almost completely withered))							
